In EPA's ToxRefDB 2:

How the values were obtained:
[1] = tested on: mouse; details: Subchronic oral toxicity in rodents, b6c3f1, Feed, dose end: 13 week, group: systemic
[2] = tested on: rat; details: Combined chronic toxicity/carcinogenicity; fischer; Oral; Feed; dose end: 104 week; group: systemic; systemic / in life observation / clinical signs / body cold to touch + systemic / in life observation / clinical signs / emaciation + …
[3] = tested on: rat; details: Subchronic oral toxicity in rodents, fischer, Feed, dose end: 13 week, group: systemic
[4] = tested on: dog; details: Subchronic oral toxicity in nonrodent, beagle, Capsule, dose end: 13 week, group: systemic, systemic / in life observation / clinical signs / salivation + systemic / pathology microscopic / liver / proliferation
[5] = tested on: mouse; details: Carcinogenicity, b6c3f1, Oral, [Not Specified], dose end: 104 week, group: systemic
[6] = tested on: dog; details: Chronic toxicity, beagle, Oral, Capsule, dose end: 52 week, group: systemic
[7] = tested on: rat; details: Multigenerational reproductive toxicity study, other, Oral, Feed, dose end: 2 generation
[8] = tested on: rat; details: Chronic toxicity; sprague dawley; Oral; Feed; dose end: 104 week; group: systemic; systemic / in life observation / body weight / body weight + systemic / in life observation / body weight / body weight gain + systemic / …
[9] = tested on: mouse; details: Carcinogenicity; cd1; Oral; [Not Specified]; dose end: 24 month; group: systemic; systemic / in life observation / body weight / body weight gain
[10] = tested on: rat; details: Subchronic oral toxicity in rodents, sprague dawley, Feed, dose end: 95 day, group: systemic
[11] = tested on: dog; details: Chronic toxicity, beagle, Oral, Feed, dose end: 52 week, group: systemic
[12] = tested on: rat; details: Carcinogenicity, sprague dawley, Oral, Feed, dose end: 104 week, group: systemic
[13] = tested on: dog; details: Subchronic oral toxicity in nonrodent, beagle, Feed, dose end: 13 week, group: systemic, systemic / clinical chemistry / alkaline phosphatase (alp/alk) / alkaline phosphatase (alp/alk) + systemic / organ weight / prostate / …
[14] = tested on: dog; details: Subchronic oral toxicity in nonrodent, beagle, Feed, dose end: 6 month, group: cholinesterase, cholinesterase / cholinesterase / cholinesterase / erythrocyte cholinesterase (che) + cholinesterase / cholinesterase / cholinesterase / …
[15] = tested on: dog; details: Chronic toxicity, beagle, Oral, Feed, dose end: 52 week
[16] = tested on: rat; details: Combined chronic toxicity/carcinogenicity, sprague dawley, Oral, Feed, dose end: 24 month
[17] = tested on: rat; details: Multigenerational reproductive toxicity study, wistar, Oral, Feed, dose end: 2 generation
[18] = tested on: mouse; details: Combined chronic toxicity/carcinogenicity, cd1, Oral, Feed, dose end: 91 week
[19] = tested on: mouse; details: Subchronic oral toxicity in rodents, cd1, Feed, dose end: 8 week
[20] = systemic / pathology microscopic / liver / [other]
[21] = systemic / pathology microscopic / liver / [other] + systemic / in life observation / body weight / body weight + systemic / in life …
[22] = systemic / clinical chemistry / alkaline phosphatase (alp/alk) / alkaline phosphatase (alp/alk) + systemic / clinical chemistry / gamma …
[23] = systemic / clinical chemistry / cholesterol / cholesterol
[24] = systemic / pathology microscopic / liver / hematopoietic cell proliferation granulocytic + systemic / pathology gross / liver / accentuated …
[25] = systemic / pathology microscopic / liver / [other] + systemic / pathology microscopic / liver / hyperplasia
[26] = systemic / pathology microscopic / liver / [other] + systemic / pathology microscopic / liver / hyperplasia + systemic / in life observation…
[27] = group: offspring, systemic / in life observation / body weight / offspring (pup) weight + systemic / in life observation / body weight / offspring (pup) …
[28] = group: parental, systemic / pathology microscopic / liver / hyperplasia
[29] = group: parental, systemic / pathology microscopic / liver / hyperplasia + systemic / pathology microscopic / liver / inflammation
[30] = systemic / pathology microscopic / liver / vacuolization
[31] = systemic / pathology microscopic / liver / vacuolization + systemic / hematology / erythrocyte (rbc) count differential / erythrocyte (rbc…
[32] = systemic / organ weight / prostate / absolute + systemic / organ weight / prostate / relative to body weight + systemic / clinical chemistry…
[33] = systemic / in life observation / body weight / body weight + systemic / in life observation / body weight / body weight gain
[34] = systemic / in life observation / body weight / body weight + systemic / in life observation / body weight / body weight gain + systemic / in…
[35] = group: cholinesterase, cholinesterase / cholinesterase / cholinesterase / erythrocyte cholinesterase (che) + cholinesterase / cholinesterase / cholinesterase / …
[36] = group: reproductive, reproductive / reproductive performance / estrous cycle / abnormal
[37] = group: systemic, systemic / organ weight / liver / absolute + systemic / organ weight / liver / relative to brain weight
[38] = group: systemic, systemic / organ weight / liver / absolute + systemic / organ weight / liver / relative to brain weight + systemic / clinical chemistry / …
[39] = group: cholinesterase, cholinesterase / cholinesterase / cholinesterase / plasma cholinesterase (che)
[40] = group: cholinesterase, cholinesterase / cholinesterase / cholinesterase / plasma cholinesterase (che) + cholinesterase / cholinesterase / cholinesterase / brain …
[41] = group: systemic, systemic / pathology microscopic / pancreas / atrophy
[42] = group: systemic, systemic / pathology microscopic / pancreas / atrophy + systemic / pathology microscopic / pancreas / adenoma + systemic / in life …
[43] = group: cholinesterase, cholinesterase / cholinesterase / cholinesterase / cholinesterase (che)
[44] = group: cholinesterase, cholinesterase / cholinesterase / cholinesterase / cholinesterase (che) + cholinesterase / cholinesterase / cholinesterase / brain …
[45] = group: offspring, developmental / offspring survival late / lactation index / lactation index + developmental / offspring survival late / [other] / [other] + …
[46] = group: offspring, systemic / in life observation / clinical signs / no milk in stomach
[47] = group: parental, systemic / in life observation / body weight / body weight gain + systemic / in life observation / clinical signs / hyperreflexitivity
[48] = group: reproductive, reproductive / offspring survival early / litter size / litter size
[49] = group: cholinesterase, cholinesterase / cholinesterase / cholinesterase / brain cholinesterase (che) + cholinesterase / cholinesterase / cholinesterase / …
[50] = group: systemic, systemic / pathology microscopic / intestine small / hyperplasia + systemic / in life observation / mortality / mortality + systemic / …
[51] = group: systemic, systemic / pathology microscopic / intestine small / hyperplasia + systemic / pathology microscopic / bone marrow / hyperplasia
[52] = group: cholinesterase, cholinesterase / cholinesterase / cholinesterase / plasma cholinesterase (che) + cholinesterase / cholinesterase / cholinesterase / …
[53] = group: systemic, systemic / in life observation / body weight / body weight + systemic / in life observation / body weight / body weight gain + systemic / in…

In the case of `COc1cc(OC)nc(Oc2cccc(Oc3nc(OC)cc(OC)n3)c2C(=O)[O-])n1.[Na+]` [Bispyribac-sodium], the LEL [1, 20] is reported as 699 mg/kg/day, the LOAEL [1, 20] is reported as 699 mg/kg/day and the NEL [1, 21] is reported as 68.6 mg/kg/day. It also gave an NOAEL [1, 21] of 68.6 mg/kg/day, an LEL [2] of 194 mg/kg/day and an LOAEL [2] of 194 mg/kg/day. For the same molecule, the NEL [2] was 10.9 mg/kg/day, the NOAEL [2] was 10.9 mg/kg/day and the LOAEL [3, 22] was 724 mg/kg/day. The NOAEL [3, 22] was 71.9 mg/kg/day, the LEL [3, 23] was 8.1 mg/kg/day and the NEL [3, 23] was < 8.1 mg/kg/day. The LEL [4] was 600 mg/kg/day, the LOAEL [4] was 600 mg/kg/day and the NEL [4] was 100 mg/kg/day. For the same molecule, the NOAEL [4] was 100 mg/kg/day, the LOAEL ([5]; systemic / pathology microscopic / liver / hematopoietic cell proliferation granulocytic + systemic / in life observation / body weight / …) was 353 mg/kg/day and the LEL [5, 24] was 1.4 mg/kg/day. For the same molecule, the NEL [5, 24] was < 1.4 mg/kg/day, the NOAEL ([5]; systemic / pathology microscopic / liver / hematopoietic cell proliferation granulocytic + systemic / pathology microscopic / liver / giant …) was 14.1 mg/kg/day and the LEL [6, 25] was 100 mg/kg/day. It also gave an LOAEL [6, 25] of 100 mg/kg/day, an NEL [6, 26] of 10 mg/kg/day and an NOAEL [6, 26] of 10 mg/kg/day. For the same molecule, the LEL [7, 27] was 759 mg/kg/day, the LOAEL [7, 27] was 759 mg/kg/day and the NEL [7, 27] was 75.7 mg/kg/day. For the same molecule, the NOAEL [7, 27] was 75.7 mg/kg/day, the LEL [7, 28] was 75.7 mg/kg/day and the LOAEL [7, 28] was 75.7 mg/kg/day. It also gave an NEL [7, 29] of 1.5 mg/kg/day and an NOAEL [7, 29] of 1.5 mg/kg/day.

Molecule `COc1ccc(C(=CC(=O)N2CCOCC2)c2ccc(Cl)cc2)cc1OC` [Dimethomorph] has an LEL [8] of 57.7 mg/kg/day, an LOAEL [8] of 57.7 mg/kg/day and an NEL [8] of 11.9 mg/kg/day. It also gave an NOAEL [8] of 11.9 mg/kg/day, an LEL [9] of 977 mg/kg/day and an LOAEL [9] of 977 mg/kg/day. The NEL [9] was 96.8 mg/kg/day, the NOAEL [9] was 96.8 mg/kg/day and the LEL [10, 30] was 2.9 mg/kg/day. For the same molecule, the NEL [10, 30] was < 2.9 mg/kg/day, the LOAEL [10, 31] was > 73 mg/kg/day and the NOAEL [10, 31] was ≥ 73 mg/kg/day. It also gave an LOAEL ([11]; systemic / organ weight / prostate / absolute + systemic / organ weight / prostate / relative to body weight) of 44.6 mg/kg/day, an LEL [11, 32] of 44.6 mg/kg/day and an NEL [11, 32] of 14.7 mg/kg/day. It also gave an NOAEL [11, 32] of 14.7 mg/kg/day, an LEL [12, 33] of 46.3 mg/kg/day and an LOAEL [12, 33] of 46.3 mg/kg/day. The NEL [12, 34] was 11.3 mg/kg/day, the NOAEL [12, 34] was 11.3 mg/kg/day and the LEL [13] was 43 mg/kg/day. For the same molecule, the LOAEL [13] was 43 mg/kg/day, the NEL [13] was 15 mg/kg/day and the NOAEL [13] was 15 mg/kg/day.

`CCNP(=S)(OC)O/C(C)=C/C(=O)OC(C)C` (configuration not stated) [Propetamphos] was tested, and the LEL [14] was 0.083 mg/kg/day, the LOAEL [14] was 0.165 mg/kg/day and the NEL [14] was < 0.083 mg/kg/day. It also gave an NOAEL [14] of 0.083 mg/kg/day, an LEL [15, 35] of 0.59 mg/kg/day and an LOAEL [15, 35] of 0.59 mg/kg/day. For the same molecule, the NEL [15, 35] was 0.13 mg/kg/day, the NOAEL [15, 35] was 0.13 mg/kg/day and the LEL [15, 36] was 3.39 mg/kg/day. The LOAEL [15, 36] was > 3.39 mg/kg/day, the NEL [15, 36] was 0.67 mg/kg/day and the NOAEL [15, 36] was ≥ 3.39 mg/kg/day. The LEL [15, 37] was 0.59 mg/kg/day, the LOAEL [15, 37] was 0.59 mg/kg/day and the NEL [15, 38] was 0.13 mg/kg/day. It also gave an NOAEL [15, 38] of 0.13 mg/kg/day, an LEL [16, 39] of 0.632 mg/kg/day and an LOAEL [16, 39] of 0.632 mg/kg/day. It also gave an NEL [16, 40] of 0.376 mg/kg/day, an NOAEL [16, 40] of 0.376 mg/kg/day and an LEL [16, 41] of 0.689 mg/kg/day. For the same molecule, the LOAEL [16, 41] was 0.689 mg/kg/day, the NEL [16, 42] was 0.412 mg/kg/day and the NOAEL [16, 42] was 0.412 mg/kg/day. The LEL [17, 43] was 2.1 mg/kg/day, the LOAEL [17, 43] was 2.1 mg/kg/day and the NEL [17, 44] was 0.3 mg/kg/day. The NOAEL [17, 44] was 0.3 mg/kg/day, the LOAEL [17, 45] was 8 mg/kg/day and the NOAEL [17, 45] was 3 mg/kg/day. The LEL [17, 46] was 0.5 mg/kg/day, the NEL [17, 46] was < 0.5 mg/kg/day and the LEL ([17]; group: parental, systemic / in life observation / body weight / body weight gain) was 3.7 mg/kg/day. The LOAEL [17, 47] was 7.1 mg/kg/day, the NOAEL [17, 47] was 2.8 mg/kg/day and the NEL ([17]; group: parental, systemic / in life observation / body weight / body weight gain + systemic / in life observation / clinical signs / hyperreflexitivity + …) was 0.5 mg/kg/day. The LEL [17, 48] was 0.5 mg/kg/day, the NEL [17, 48] was < 0.5 mg/kg/day and the NOAEL ([17]; group: reproductive, reproductive / reproductive performance / implantations / implantations + reproductive / reproductive performance / mating / mating) was 3.7 mg/kg/day. It also gave an LOAEL ([17]; group: reproductive, reproductive / reproductive performance / implantations / implantations + reproductive / reproductive performance / mating / mating + …) of 11.3 mg/kg/day, an LEL [18, 49] of 1 mg/kg/day and an LOAEL [18, 49] of 1 mg/kg/day. For the same molecule, the NEL [18, 49] was 0.05 mg/kg/day, the NOAEL [18, 49] was 0.05 mg/kg/day and the NEL [18, 50] was 1 mg/kg/day. It also gave an NOAEL [18, 50] of 1 mg/kg/day, an LEL [18, 51] of 6 mg/kg/day and an LOAEL [18, 51] of 6 mg/kg/day. For the same molecule, the LEL [19, 52] was 1 mg/kg/day, the LOAEL [19, 52] was 1 mg/kg/day and the NEL [19, 52] was < 1 mg/kg/day. For the same molecule, the NOAEL [19, 52] was < 1 mg/kg/day, the LOAEL ([19]; group: systemic, systemic / in life observation / body weight / body weight + systemic / in life observation / body weight / body weight gain) was 59 mg/kg/day and the LEL [19, 53] was 59 mg/kg/day. The NEL [19, 53] was 28 mg/kg/day and the NOAEL [19, 53] was 28 mg/kg/day.
